Experimental data: ChEMBL document CHEMBL3638865, “Macrocycles as factor XIa inhibitors” (2014)

Target: Coagulation factor XI (Homo sapiens, UniProt P03951)
Test: In Vitro Assay: The effectiveness of compounds of the present invention as inhibitors of the coagulation Factors XIa, VIIa, IXa, Xa, XIIa, plasma kallikrein or thrombin, can be determined using a relevant purified serine protease, respectively, and an appropriate synthetic substrate. The rate of hydrolysis of the chromogenic or fluorogenic substrate by the relevant serine protease was measured both in the absence and presence of compounds of the present invention. […] A decrease in the rate of absorbance or fluorescence change in the presence of inhibitor is indicative of enzyme inhibition. Factor XIa determinations were made in 50 mM HEPES buffer at pH 7.4.

Coagulation factor XI, sequence (P03951 19-387 limits assumed): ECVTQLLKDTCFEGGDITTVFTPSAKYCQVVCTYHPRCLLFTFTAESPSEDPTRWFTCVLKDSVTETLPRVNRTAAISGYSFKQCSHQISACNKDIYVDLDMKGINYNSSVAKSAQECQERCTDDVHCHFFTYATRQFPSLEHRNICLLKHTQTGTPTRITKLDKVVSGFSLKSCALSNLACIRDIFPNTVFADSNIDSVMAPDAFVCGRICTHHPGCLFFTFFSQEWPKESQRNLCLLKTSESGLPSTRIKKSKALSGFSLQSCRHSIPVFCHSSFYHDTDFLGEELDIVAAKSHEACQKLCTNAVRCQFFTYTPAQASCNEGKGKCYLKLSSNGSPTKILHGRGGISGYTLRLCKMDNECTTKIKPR
Coagulation factor XI, sequence (P03951 388-625 limits assumed): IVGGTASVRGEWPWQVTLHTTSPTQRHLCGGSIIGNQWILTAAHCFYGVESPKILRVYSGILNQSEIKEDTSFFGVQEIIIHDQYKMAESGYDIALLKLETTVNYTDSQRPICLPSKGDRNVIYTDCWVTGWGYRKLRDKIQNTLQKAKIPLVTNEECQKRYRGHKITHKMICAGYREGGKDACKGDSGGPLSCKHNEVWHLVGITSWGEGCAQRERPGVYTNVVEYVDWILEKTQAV

## COC(=O)Nc1ccc2c(c1)CNC(=O)c1ccc(cc1)C[C@H](NC(=O)/C=C/c1cc(Cl)ccc1-n1cnnn1)c1nc-2c(Cl)[nH]1
  Ki: 8.12 µM
